In assay [1] the test system is NCI-H1975 cells. In words: Inhibition of NCI-H1975 cell proliferation (CellTiter-Glo). In kind it is cell-based. As to conditions: for IC50: Homo sapiens, NCI-H1975, 72 h, NCI-H1975 cell proliferation, 72 hours, CellTiter-Glo, read-out: EGFR IC50 (nM) H1975; for Selectivity of wild-type/mutant-type: ratio A431 IC50 / H1975 IC50, cells. On the procedure: 3. Experiment on the Inhibition of NCI-H1975 Cell Proliferation
In this experiment, the inhibitory effect of the compounds on NCI-H1975 cell proliferation was tested by a CellTiter-Glo method, and the half maximal inhibitory concentration (IC50) of the compounds on the activity of cell proliferation was determined.
The culture plate was incubated in an incubator for 16 to 24 hours (37° C., 5% CO2).
(§1) 2) Different concentrations of the test compound in a gradient dilution were added to the cells in the culture plate. The culture plate was incubated in an incubator for 72 hours (37° C., 5% CO2).
3) 50 to 100 μL of CellTiter-Glo reagent was added to each well. Then, the culture plate was shaken for 10 minutes, and left to stand at room temperature for 10 minutes.
(§2) 4) The chemiluminescence signal values of each plate were determined by a microplate reader.
5) The inhibition rates were calculated according to the chemiluminescence signal values.
6) The IC50 of the compound was obtained by curve fitting according to the inhibition rates at different concentrations.
A general note: In ATP-based viability assays light output follows the ATP content of the culture.

Assay [2] has as its system A431 cells. Put plainly: Inhibition of A431 cell proliferation (CellTiter-Glo). As to conditions: Homo sapiens, A-431, 72 h, read-out: EGFR IC50 (nM) A431. In kind it is cell-based. On the procedure:
4. Experiment on the Inhibition of A431 Cell Proliferation
In this experiment, the inhibitory effect of the compounds on A431 cell proliferation was tested by a CellTiter-Glo method, and the half maximal inhibitory concentration (IC50) of the compounds on the activity of cell proliferation was determined.
The culture plate was incubated in the incubator for 16 to 24 hours (37° C., 5% CO2).
as §1
3) 50 to 100 μL of CellTiter-Glo reagent was added to each well. Then the culture plate was shaken for 10 minutes, and left to stand at room temperature for 10 minutes.
as §2
5) The inhibition rates were calculated according to the chemiluminescence signal values. 6) The IC50 of the compound was obtained by curve fitting according to the inhibition rates at different concentrations.

The target of assay [3] is wild-type EGFR enzyme (Homo sapiens, UniProt P00533). In words: Enzymologic experiment of wild-type (WT) EGFR (TR-FRET). In kind it is biochemical. To be noted: ATP 0.1 to 5 uM. How it is done: 2. Enzymologic Experiment of Wild-Type (WT) EGFR
In this experiment, the inhibitory effect of compounds on wild-type EGFR enzyme was tested by a fluorescence resonance energy transfer (TR-FRET) method, and the half maximal inhibitory concentration IC50 of the compounds on enzymatic activity was determined.
1) 1 to 5 μL of wild-type EGFR enzyme solution was added to a 384-well plate, and the final concentration of the enzyme was 0.1 to 1 nM.
(§3) 2) 1 to 5 μL of diluted solution in gradient of the compound was added.
(§4) 3) The mixture was incubated for 10 minutes at room temperature.
(§5) 6) 5 μL of EDTA stop solution was added to terminate the reaction for 5 minutes.
7) 5 μL of a test solution containing the labeled antibody was added, and the mixture was incubated at room temperature for 1 hour.
9) The inhibition rates were calculated from the fluorescence signal values.
(§6) 10) The IC50 of the compound was obtained by curve fitting according to the inhibition rates at different concentrations.
Background: Time-resolved FRET reads energy transfer from a long-lived donor to a nearby acceptor.

Assay [4] addresses exon 20 T790M mutant-type EGFR enzyme (Homo sapiens, UniProt P00533, T790M). Put plainly: Enzymologic experiment of T790M mutant-type EGFR (TR-FRET). In kind it is biochemical. As to conditions: for IC50: T790M EGFR enzyme, TR-FRET, ATP 1 to 10 uM; for Selectivity of wild-type/mutant-type: ratio WT IC50 / T790M IC50, enzyme. On the procedure:
as §3, §4, §5
7) […] of a test solution containing the labeled antibody was added, and the mixture was incubated at room temperature for 1 hour.
9) The inhibition rates were calculated according to the fluorescence signal values.
as §6

Sequence of wild-type EGFR enzyme (P00533 25-1210): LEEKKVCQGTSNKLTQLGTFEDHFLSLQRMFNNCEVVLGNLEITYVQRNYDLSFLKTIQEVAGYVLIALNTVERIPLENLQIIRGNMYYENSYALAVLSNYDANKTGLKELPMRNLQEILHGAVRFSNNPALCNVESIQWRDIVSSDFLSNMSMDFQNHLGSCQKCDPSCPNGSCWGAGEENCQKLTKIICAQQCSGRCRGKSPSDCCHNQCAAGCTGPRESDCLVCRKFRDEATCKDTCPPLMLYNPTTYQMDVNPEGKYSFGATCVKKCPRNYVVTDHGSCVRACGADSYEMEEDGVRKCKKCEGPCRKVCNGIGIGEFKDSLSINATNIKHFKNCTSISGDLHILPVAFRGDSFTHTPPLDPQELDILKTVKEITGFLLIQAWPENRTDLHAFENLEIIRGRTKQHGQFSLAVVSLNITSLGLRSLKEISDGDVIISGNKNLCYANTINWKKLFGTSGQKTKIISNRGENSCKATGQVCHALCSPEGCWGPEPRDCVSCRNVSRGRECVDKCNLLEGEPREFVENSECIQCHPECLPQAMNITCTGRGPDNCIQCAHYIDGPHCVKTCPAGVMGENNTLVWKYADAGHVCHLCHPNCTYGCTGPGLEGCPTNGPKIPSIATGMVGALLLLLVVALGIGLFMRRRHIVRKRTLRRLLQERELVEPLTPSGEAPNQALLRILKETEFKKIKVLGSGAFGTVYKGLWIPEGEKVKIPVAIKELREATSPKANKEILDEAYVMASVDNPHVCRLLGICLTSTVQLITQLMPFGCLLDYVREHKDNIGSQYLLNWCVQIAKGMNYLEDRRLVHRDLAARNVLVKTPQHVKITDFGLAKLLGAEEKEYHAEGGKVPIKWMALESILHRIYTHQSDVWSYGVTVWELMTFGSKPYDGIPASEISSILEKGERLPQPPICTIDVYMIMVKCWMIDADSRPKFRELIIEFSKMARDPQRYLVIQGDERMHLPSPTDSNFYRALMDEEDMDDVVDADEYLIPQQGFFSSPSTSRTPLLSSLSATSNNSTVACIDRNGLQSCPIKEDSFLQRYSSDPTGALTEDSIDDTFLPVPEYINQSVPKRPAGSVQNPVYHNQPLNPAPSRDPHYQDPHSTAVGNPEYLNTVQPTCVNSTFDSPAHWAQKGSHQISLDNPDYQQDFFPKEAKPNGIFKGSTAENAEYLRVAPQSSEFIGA
Sequence of exon 20 T790M mutant-type EGFR enzyme (P00533 25-1210 T790M): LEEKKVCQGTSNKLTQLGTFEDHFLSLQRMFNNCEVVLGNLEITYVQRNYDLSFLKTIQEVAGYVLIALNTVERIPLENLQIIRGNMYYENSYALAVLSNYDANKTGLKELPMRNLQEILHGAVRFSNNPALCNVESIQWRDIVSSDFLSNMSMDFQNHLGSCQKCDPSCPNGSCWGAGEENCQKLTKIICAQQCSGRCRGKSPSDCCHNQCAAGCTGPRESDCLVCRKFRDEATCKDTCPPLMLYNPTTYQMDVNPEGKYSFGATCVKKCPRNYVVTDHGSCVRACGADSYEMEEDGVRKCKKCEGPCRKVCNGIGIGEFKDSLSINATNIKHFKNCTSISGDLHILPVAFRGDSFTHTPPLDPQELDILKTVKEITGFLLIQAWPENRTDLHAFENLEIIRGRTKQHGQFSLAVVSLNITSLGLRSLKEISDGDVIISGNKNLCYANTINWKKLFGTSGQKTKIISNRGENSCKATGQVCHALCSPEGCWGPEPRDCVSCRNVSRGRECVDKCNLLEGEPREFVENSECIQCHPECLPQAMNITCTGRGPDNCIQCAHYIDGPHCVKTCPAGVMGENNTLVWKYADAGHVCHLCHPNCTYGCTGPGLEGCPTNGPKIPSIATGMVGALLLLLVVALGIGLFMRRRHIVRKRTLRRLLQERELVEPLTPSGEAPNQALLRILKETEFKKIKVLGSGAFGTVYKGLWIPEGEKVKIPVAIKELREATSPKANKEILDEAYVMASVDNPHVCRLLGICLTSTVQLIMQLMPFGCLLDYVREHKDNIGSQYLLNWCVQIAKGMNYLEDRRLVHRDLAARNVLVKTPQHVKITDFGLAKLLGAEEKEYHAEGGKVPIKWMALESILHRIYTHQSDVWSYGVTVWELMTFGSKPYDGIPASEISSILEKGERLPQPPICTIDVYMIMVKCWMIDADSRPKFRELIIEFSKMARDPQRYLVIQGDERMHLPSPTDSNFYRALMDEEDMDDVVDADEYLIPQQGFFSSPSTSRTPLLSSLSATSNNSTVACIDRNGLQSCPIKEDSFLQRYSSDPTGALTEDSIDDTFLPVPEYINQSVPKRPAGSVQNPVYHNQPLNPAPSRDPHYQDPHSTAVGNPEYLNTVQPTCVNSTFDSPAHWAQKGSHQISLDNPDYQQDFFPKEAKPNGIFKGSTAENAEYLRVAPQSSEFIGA

By IC50 is commonly meant the concentration needed to halve the response being measured. Consider `C=CC(=O)Nc1cc(Nc2ncc(Cl)c(-c3cn(C4CC4)c4ccccc34)n2)c(OC)cc1N(C)CCN(C)C` [Example 100, N-(5-((5-chloro-4-(1-cyclopropyl-1H-indol-3-yl)pyrimidin-2-yl)amino)-2-((2-(dimethylamino)ethyl)(methyl)amino)-4-methoxyphenyl)acrylamide], for which the results for the half-inhibitory concentration (IC50) in assay [1] and in assay [2] were 8.72 nM and 350 nM, respectively.

Consider `C=CC(=O)Nc1cc(Nc2ncc(C(F)(F)F)c(-n3nc(C)c4cc(OC)ccc43)n2)c(OC)cc1N(C)CCN(C)C` [Example 107], for which the IC50 in assay [3] was found to be 28 nM; in assay [1] it was 2.76 nM; in assay [2], 98.3 nM; in assay [4] it was 0.76 nM. Besides, the Selectivity of wild-type/mutant-type in assay [1] was 35.61; in assay [4], 36.84.

Turning to `C=CC(=O)Nc1cc(Nc2ncc(Cl)c(-n3nc(C4CC4)c4cc(OC)ccc43)n2)c(OC)cc1N(C)CCN(C)C` [Example 115, N-(5-((5-chloro-4-(3-cyclopropyl-5-methoxy-1H-indazol-1-yl)pyrimidin-2-yl)amino)-2-((2-(dimethylamino)ethyl)(methyl)amino)-4-methoxyphenyl)acrylamide], the IC50 came out at 3.94 nM in assay [3], 4.98 nM in assay [1], 101 nM in assay [2] and 0.37 nM in assay [4]. Besides, the Selectivity of wild-type/mutant-type in assay [1] stood at 20.34; in assay [4], 10.65.

For the molecule `C=CC(=O)Nc1cc(Nc2nccc(-n3ncc4ccc(OC)cc43)n2)c(OC)cc1N(C)CCN1CCCC1` [Example 136, N-(4-methoxy-5-((4-(6-methoxy-1H-indazol-1-yl)pyrimidin-2-yl)amino)-2-(methyl(2-(pyrrolidin-1-yl)ethyl)amino)phenyl)acrylamide], the IC50 in assay [3] is 4.33 nM; in assay [1], 11.2 nM; in assay [2] it was 336 nM; in assay [4], 0.78 nM. Moreover, the figures for the Selectivity of wild-type/mutant-type in assay [1] and in assay [4] were 30.04 and 5.55, respectively.

For the molecule `C=CCn1cc(-c2ccnc(Nc3cc(NC(=O)C=C)c(N(C)CCNC)cc3OC)n2)c2ccccc21` [Example 126, N-(5-((4-(1-allyl-1H-indol-3-yl)pyrimidin-2-yl)amino)-4-methoxy-2-(methyl(2-(methylamino)ethyl)amino)phenyl)acrylamide], the IC50 in assay [3] stood at 15.4 nM; in assay [1] it was 34 nM; in assay [4] it was 1.51 nM. In addition, the Selectivity of wild-type/mutant-type in assay [4] was determined as 10.17.

Turning to `C=CC(=O)Nc1cc(Nc2nccc(-n3cnc4ccc(C#N)cc43)n2)c(OC)cc1N(C)CCN(C)C` [Example 62, N-(5-((4-(6-cyano-1H-benzo[d]imidazol-1-yl)pyrimidin-2-yl)amino)-2-((2-(dimethylamino)ethyl)(methyl)amino)-4-methoxyphenyl)acrylamide], the 50% inhibitory concentration (IC50) in assay [3] is 26.4 nM; in assay [1], 26.3 nM; in assay [4], 8.32 nM. Also, the Selectivity of wild-type/mutant-type in assay [4] amounted to 3.18.

As for `C=CC(=O)Nc1cc(Nc2nccc(-c3cn(C(C)=O)c4ccccc34)n2)c(OC(F)F)cc1N(C)CCN(C)C` [Example 7, N-(5-((4-(1-acetyl-1H-indol-3-yl)pyrimidin-2-yl)amino)-4-(difluoromethoxy)-2-((2-(dimethylamino)ethyl)(methyl)amino)phenyl)acrylamide], the 50% inhibitory concentration (IC50) worked out at 15.5 nM in assay [3], 15.8 nM in assay [1] and 192 nM in assay [2].

Turning to `C=CC(=O)Nc1cc(Nc2nccc(-c3cn(C)c4c(F)cc(F)cc34)n2)c(OC)cc1N(C)CCN(C)C` [Example 89, N-(5-((4-(5,7-difluoro-1-methyl-1H-indol-3-yl)pyrimidin-2-yl)amino)-2-((2-(dimethylamino)ethyl)(methyl)amino)-4-methoxyphenyl)acrylamide], the IC50 in assay [3] was found to be 34.6 nM; in assay [1], 112 nM; in assay [4], 8.57 nM. Further, the Selectivity of wild-type/mutant-type in assay [4] was 4.04.

With `C=CC(=O)Nc1cc(Nc2ncc(C(F)(F)F)c(-n3ncc4cc(C#N)ccc43)n2)c(OC)cc1N(C)CCN(C)C` [Example 52, N-(5-((4-(5-cyano-1H-indazol-1-yl)-5-(trifluoromethyl)pyrimidin-2-yl)amino)-2-((2-(dimethylamino)ethyl)(methyl)amino)-4-methoxyphenyl)acrylamide], the IC50 in assay [3] was 116 nM; in assay [1], 4.52 nM; in assay [4], 1.08 nM. Moreover, the Selectivity of wild-type/mutant-type in assay [4] is reported as 107.1.

As for `C=CC(=O)Nc1cc(Nc2nccc(-n3ncc4cc(OCC)ccc43)n2)c(OC)cc1N(C)CCN1CCCC1` [Example 133], the values for the IC50 in assay [3], in assay [1] and in assay [4] were 7.49 nM, 6.47 nM and 0.69 nM, respectively. The Selectivity of wild-type/mutant-type in assay [4] stood at 10.86.

With `C#Cc1ccc2c(-c3ccnc(Nc4cc(NC(=O)C=C)c(N(C)CCN(C)C)cc4OC)n3)cn(C)c2c1` [Example 95, N-(2-((2-(dimethylamino)ethyl)(methyl)amino)-5-((4-(6-ethynyl-1-methyl-1H-indol-3-yl)pyrimidin-2-yl)amino)-4-methoxyphenyl)acrylamide], the half-inhibitory concentration (IC50) came to 5.35 nM in assay [3], 10.9 nM in assay [1] and 0.51 nM in assay [4].

In the case of `C=CC(=O)Nc1cc(Nc2nccc(-c3cn(CCO)c4ccccc34)n2)c(OC(F)F)cc1N(C)CCN(C)C` [Example 6, N-(4-(difluoromethoxy)-2-((2-(dimethylamino)ethyl)(methyl)amino)-5-((4-(1-(2-hydroxyethyl)-1H-indol-3-yl)pyrimidin-2-yl)amino)phenyl)acrylamide], the IC50 in assay [3] was 1.54 nM; in assay [1] it was 2.2 nM; in assay [2], 208 nM.

Take `C=CC(=O)Nc1cc(Nc2nccc(-n3nc(C)c4ccc(OC)cc43)n2)c(OC)cc1N(C)CCN1CCCC1` [Example 132, N-(4-methoxy-5-((4-(6-methoxy-3-methyl-1H-indazol-1-yl)pyrimidin-2-yl)amino)-2-(methyl(2-(pyrrolidin-1-yl)ethyl)amino)phenyl)acrylamide]: the IC50 in assay [3] was 12 nM; in assay [1] it was 10.1 nM; in assay [4], 1.29 nM. For the same molecule, the Selectivity of wild-type/mutant-type in assay [4] came out at 9.34.

Consider `C=CCn1cc(-c2ccnc(Nc3cc(NC(=O)C=C)c(N(C)CCN(C)C)cc3OC)n2)c2ccccc21` [Example 141, N-(5-((4-(1-allyl-1H-indol-3-yl)pyrimidin-2-yl)amino)-2-((2-(dimethylamino)ethyl)(methyl)amino)-4-methoxyphenyl)acrylamide], for which the IC50 in assay [3] was 6.62 nM; in assay [1], 7.51 nM; in assay [4], 0.6 nM. Further, the Selectivity of wild-type/mutant-type in assay [4] was determined as 11.1.

Consider `C=CC(=O)Nc1cc(Nc2ncc(Cl)c(-c3cn(C4COC4)c4ccccc34)n2)c(OC)cc1N(C)CCN(C)C` [Example 130, N-(5-((5-chloro-4-(1-(oxetan-3-yl)-1H-indol-3-yl)pyrimidin-2-yl)amino)-2-((2-(dimethylamino)ethyl)(methyl)amino)-4-methoxyphenyl)acrylamide], for which the half-maximal inhibitory concentration (IC50) in assay [2] was 97 nM.

Regarding `C=CC(=O)Nc1cc(Nc2nccc(-n3cnc4ccc(OC)cc43)n2)c(OC)cc1N(C)CCN1CCCC1` [Example 139, N-(4-methoxy-5-((4-(6-methoxy-1H-benzo[d]imidazol-1-yl)pyrimidin-2-yl)amino)-2-(methyl(2-(pyrrolidin-1-yl)ethyl)amino)phenyl)acrylamide], the IC50 was 9.16 nM in assay [3], 6.28 nM in assay [1] and 1.44 nM in assay [4]. The Selectivity of wild-type/mutant-type in assay [4] is listed as 6.36.

Source of the values: US10428081B2, “EGFR inhibitor, preparation method and use thereof” (Shanghai Hansoh Biomedical Co., Ltd., priority 2014, dated 2019).
